Source: patent publication US20150105252A1, “SUBSTITUTED PYRAZOLES AS HERBICIDES” (E I DU PONT DE NEMOURS AND COMPANY, priority 2013, published 2015)

Experiments:
velvetleaf [1] = test: Test A postemergence; type: in vivo, Abutilon theophrasti
In short: (§1)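 After sowing in a sand–loam mix, pots received compound preemergence by directed soil spray, or postemergence once plants reached the one- to two-leaf stage (2–10 cm). Formulation contained surfactant in a non-phytotoxic solvent. Injury was scored visually after ~10 greenhouse days, 0–100 scale.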

johnsongrass = test: Test C postemergence; type: in vivo, Sorghum halepense; details: for Johnsongrass plant response rating: scale 0 to 100
Source text: (§2) Seeds of plant species selected from blackgrass (Alopecurus myosuroides), ryegrass, Italian (Italian ryegrass, Lolium multiflorum), wheat (winter wheat, Triticum aestivum), galium (catchweed bedstraw, Galium aparine), corn (Zea mays), crabgrass, large (large crabgrass, Digitaria sanguinalis), foxtail, giant (giant foxtail, Setaria faberii), johnsongrass (Sorghum halepense), lambsquarters (Chenopodium album), morningglory (Ipomoea coccinea), nutsedge, yellow (yellow nutsedge, Cyperus esculentus), pigweed (redroot pigweed, Amaranthus retroflexus), ragweed (common ragweed, Ambrosia elation), soybean (Glycine max), barnyardgrass (Echinochloa crus-galli), oilseed rape (Brassica napus), waterhemp (common waterhemp, Amaranthus rudis), oat, wild (wild oat, Avena fatua), kochia (Kochia scoparia), Surinam grass (Brachiaria decumbens), foxtail, green (green foxtail, Setaria viridis), goosegrass (Eleusine indica), bromegrass, downy (downy bromegrass, Bromus tectorum), nightshade (eastern black nightshade, Solanum ptycanthum), cocklebur (common cocklebur, Xanthium strumarium), cupgrass, woolly (woolly cupgrass, Eriochloa villosa), bermudagrass (Cynodon dactylon), sunflower, (common oilseed sunflower, Helianthus annuus), Russian thistle (Salsola kali), and velvetleaf (Abutilon theophrasti) were planted into a blend of loam soil and sand and treated preemergence with test chemicals formulated in a non-phytotoxic solvent mixture which included a surfactant.
(§3) At the same time, plants selected from these crop and weed species and also chickweed (common chickweed, Stellaria media), canarygrass (littleseed canarygrass, Phalaris minor), and deadnettle (henbit deadnettle, Lamium amplexicaule), were planted in pots containing Redi-Earth® planting medium (Scotts Company, 14111 Scottslawn Road, Marysville, Ohio 43041) comprising spaghnum peat moss, vermiculite, wetting agent and starter nutrients and treated with postemergence applications of test chemicals formulated in the same manner. Plants ranged in height from 2 to 18 cm (1- to 4-leaf stage) for postemergence treatments. Treated plants and controls were maintained in a greenhouse for 13 to 15 days, after which time all species were compared to controls and visually evaluated. Plant response ratings, summarized in Table C, are based on a scale of 0 to 100 where 0 is no effect and 100 is complete control. A dash (-) response means no test result.

velvetleaf [2] = test: Test C preemergence; type: in vivo, Abutilon theophrasti; details: for Plant response rating (scale of 0 to 100), Velvetleaf: 250 g ai/ha
Source text: as §2, §3

morningglory [3] = test: Test C preemergence; type: in vivo, Ipomoea coccinea; details: for Plant response rating (scale of 0 to 100), Morningglory: 250 g ai/ha
Source text: as §2, §3

soybean = test: Test C preemergence; type: in vivo, Glycine max; details: for Plant response rating (scale of 0 to 100), Soybean: 250 g ai/ha
Source text: as §2, §3

oat, wild = test: Test C postemergence; type: in vivo, Avena fatua; details: for Oat, Wild plant response rating: scale 0 to 100
Source text: as §2, §3

lambsquarters = test: Test C preemergence; type: in vivo, Chenopodium album; details: for Plant response rating (scale of 0 to 100), Lambsquarters: 250 g ai/ha
Source text: as §2, §3

velvetleaf [4] = test: Test C postemergence; type: in vivo, Abutilon theophrasti; details: postemergence; for Velvetleaf plant response rating: 62 g ai/ha, scale 0 to 100
Source text: as §2, §3

morningglory [5] = test: Test A postemergence; type: in vivo, Ipomoea spp.
In short: as §1

morningglory [6] = test: Test C postemergence; type: in vivo, Ipomoea coccinea; details: for Morningglory plant response rating: scale 0 to 100
Source text: as §2, §3

wheat = test: Test A postemergence; type: in vivo, Triticum aestivum
In short: as §1

chickweed = test: Test C postemergence; type: in vivo, Stellaria media; details: for Chickweed plant response rating: scale 0 to 100
Source text: as §2, §3

sedge, umbrella = test: Test B flood; type: in vivo, Cyperus difformis; details: 250 g ai/ha, visual rating on 0 to 100 scale (0 no effect, 100 complete control), 13 to 15 days
In short: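 Visual ratings on a 0–100 scale, where 0 means no effect and 100 means complete control, were assigned by comparison with controls 13 to 15 days after treatment. Compounds went into paddy water over 2-leaf plants flooded to 3 cm.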

barnyardgrass = test: Test C preemergence; type: in vivo, Echinochloa crus-galli; details: for Plant response rating, Barnyardgrass: Preemergence, scale 0 to 100
Source text: as §2, §3

[7] = Postemergence, 500 g ai/ha, visual rating after approx. 10 days, 0 to 100 scale (0 no effect, 100 complete control)
[8] = postemergence, 125 g ai/ha, about 10 days, visual rating on 0 to 100 scale (0 no effect, 100 complete control)
[9] = postemergence, 250 g ai/ha, scale 0 to 100 (0 no effect, 100 complete control)
[10] = postemergence, 62 g ai/ha, scale 0 to 100, 0 no effect, 100 complete control
[11] = postemergence, 125 g ai/ha, scale 0 to 100, 0 no effect, 100 complete control
[12] = preemergence, 31 g ai/ha, scale 0 to 100 (0 no effect, 100 complete control), 13 to 15 days
[13] = preemergence, 62 g ai/ha, 13 to 15 days, scale 0 to 100, 0 = no effect, 100 = complete control
[14] = preemergence, 125 g ai/ha, scale 0 to 100, 0 is no effect, 100 is complete control
[15] = 250 g ai/ha, scale 0 to 100 (0 no effect, 100 complete control)
[16] = 125 g ai/ha, scale 0 to 100, 0 no effect, 100 complete control
[17] = Postemergence, 500 g ai/ha, 0 to 100 scale (0 no effect, 100 complete control)
[18] = Preemergence, 4 g ai/ha, scale 0 to 100
[19] = Preemergence, 8 g ai/ha, scale 0 to 100
[20] = Preemergence, 16 g ai/ha, scale 0 to 100
[21] = preemergence, 31 g ai/ha, visual rating, scale 0 to 100 (0 no effect, 100 complete control), 13 to 15 days

CCc1cc(C(=O)NOC(C)C)nn1Cc1cccc(OC(F)(F)F)c1 [Compound 70]
Velvetleaf plant response rating (velvetleaf [1]; [7]): 90
Velvetleaf plant response rating (velvetleaf [1]; [8]): 80
Johnsongrass plant response rating (johnsongrass; Postemergence, 31 g ai/ha): 0
Plant response rating, Johnsongrass (johnsongrass; [9]): 75
Plant response rating, Johnsongrass (johnsongrass; [10]): 0
Plant response rating, Johnsongrass (johnsongrass; [11]): 10
Plant response rating (scale of 0 to 100), Velvetleaf (velvetleaf [2]; Preemergence): 100
Velvetleaf plant response rating (velvetleaf [2]; [12]): 20
Plant response rating, Velvetleaf (velvetleaf [2]; [13]): 60
Velvetleaf plant response rating (velvetleaf [2]; [14]): 75
Plant response rating (scale of 0 to 100), Morningglory (morningglory [3]; Preemergence): 95
Morningglory plant response rating (morningglory [3]; [12]): 0
Plant response rating, Morningglory (morningglory [3]; [13]): 25
Morningglory plant response rating (morningglory [3]; [14]): 75
Plant response rating (scale of 0 to 100), Soybean (soybean; Preemergence): 75
Soybean plant response rating (soybean; [12]): 5
Plant response rating, Soybean (soybean; [13]): 15
Soybean plant response rating (soybean; [14]): 70
Oat, Wild plant response rating (oat, wild; Postemergence, 31 g ai/ha): 20
Plant response rating, Oat, Wild (oat, wild; [9]): 35
Plant response rating, Oat, Wild (oat, wild; [10]): 20
Plant response rating, Oat, Wild (oat, wild; [11]): 30
Plant response rating (scale of 0 to 100), Lambsquarters (lambsquarters; Preemergence): 100
Lambsquarters plant response rating (lambsquarters; [12]): 98
Plant response rating, Lambsquarters (lambsquarters; [13]): 98
Lambsquarters plant response rating (lambsquarters; [14]): 100
Velvetleaf plant response rating (velvetleaf [4]): 20
Plant response rating, Velvetleaf (velvetleaf [4]; [15]): 55
Plant response rating, Velvetleaf (velvetleaf [4]; [16]): 30
Morningglory plant response rating (morningglory [5]; [7]): 100
Morningglory plant response rating (morningglory [5]; [8]): 100
Morningglory plant response rating (morningglory [6]; Postemergence, 31 g ai/ha): 5
Plant response rating, Morningglory (morningglory [6]; [9]): 85
Plant response rating, Morningglory (morningglory [6]; [10]): 45
Plant response rating, Morningglory (morningglory [6]; [11]): 75
Wheat plant response rating (wheat; [7]): 70
Wheat plant response rating (wheat; [8]): 70
Chickweed plant response rating (chickweed; Postemergence, 31 g ai/ha): 45
Plant response rating, Chickweed (chickweed; [9]): 65
Plant response rating, Chickweed (chickweed; [10]): 45
Plant response rating, Chickweed (chickweed; [11]): 50

CCONC(=O)c1cc(CC)n(Cc2cccc(OC(F)(F)F)c2)n1 [Compound 72]
Velvetleaf plant response rating (velvetleaf [1]; [7]): 90
Velvetleaf plant response rating (velvetleaf [1]; [8]): 80
Johnsongrass plant response rating (johnsongrass; Postemergence, 31 g ai/ha): 0
Johnsongrass plant response rating (johnsongrass; postemergence, 62 g ai/ha): 0
Plant response rating, Johnsongrass (johnsongrass; [9]): 0
Plant response rating, Johnsongrass (johnsongrass; [11]): 0
Plant response rating (scale of 0 to 100), Velvetleaf (velvetleaf [2]; Preemergence): 100
Velvetleaf plant response rating (velvetleaf [2]; [12]): 20
Plant response rating, Velvetleaf (velvetleaf [2]; [13]): 100
Velvetleaf plant response rating (velvetleaf [2]; [14]): 100
Plant response rating (scale of 0 to 100), Morningglory (morningglory [3]; Preemergence): 85
Morningglory plant response rating (morningglory [3]; [12]): 15
Plant response rating, Morningglory (morningglory [3]; [13]): 65
Morningglory plant response rating (morningglory [3]; [14]): 85
Plant response rating (scale of 0 to 100), Soybean (soybean; Preemergence): 75
Soybean plant response rating (soybean; [12]): 20
Plant response rating, Soybean (soybean; [13]): 60
Soybean plant response rating (soybean; [14]): 75
Oat, Wild plant response rating (oat, wild; Postemergence, 31 g ai/ha): 5
Oat, Wild plant response rating (oat, wild; postemergence, 62 g ai/ha): 5
Plant response rating, Oat, Wild (oat, wild; [9]): 35
Plant response rating, Oat, Wild (oat, wild; [11]): 20
Plant response rating (scale of 0 to 100), Lambsquarters (lambsquarters; Preemergence): 100
Lambsquarters plant response rating (lambsquarters; [12]): 100
Plant response rating, Lambsquarters (lambsquarters; [13]): 100
Lambsquarters plant response rating (lambsquarters; [14]): 100
Velvetleaf plant response rating (velvetleaf [4]): 5
Plant response rating, Velvetleaf (velvetleaf [4]; [15]): 55
Plant response rating, Velvetleaf (velvetleaf [4]; [16]): 35
Morningglory plant response rating (morningglory [5]; [7]): 90
Morningglory plant response rating (morningglory [5]; [8]): 80
Morningglory plant response rating (morningglory [6]; Postemergence, 31 g ai/ha): 0
Morningglory plant response rating (morningglory [6]; postemergence, 62 g ai/ha): 35
Plant response rating, Morningglory (morningglory [6]; [9]): 65
Plant response rating, Morningglory (morningglory [6]; [11]): 60
Wheat plant response rating (wheat; [7]): 80
Wheat plant response rating (wheat; [8]): 70
Chickweed plant response rating (chickweed; Postemergence, 31 g ai/ha): 40
Chickweed plant response rating (chickweed; postemergence, 62 g ai/ha): 40
Plant response rating, Chickweed (chickweed; [9]): 80
Plant response rating, Chickweed (chickweed; [11]): 50

CCOc1cc(C(=O)NCC(F)(F)F)nn1Cc1cc(C(F)(F)F)nn1C [Compound 140]
Velvetleaf plant response rating (velvetleaf [1]; [17]): 80
Velvetleaf plant response rating (velvetleaf [1]; [8]): 50
Plant response rating, Velvetleaf (velvetleaf [2]; [18]): 0
Plant response rating, Velvetleaf (velvetleaf [2]; [19]): 5
Plant response rating, Velvetleaf (velvetleaf [2]; [20]): 10
Velvetleaf plant response rating (velvetleaf [2]; [21]): 45
Plant response rating, Sedge, Umbrella (sedge, umbrella): 95
Plant response rating, Morningglory (morningglory [3]; [18]): 5
Plant response rating, Morningglory (morningglory [3]; [19]): 5
Plant response rating, Morningglory (morningglory [3]; [20]): 95
Morningglory plant response rating (morningglory [3]; [21]): 90
Plant response rating, Barnyardgrass (barnyardgrass; 4 g ai/ha): 0
Plant response rating, Barnyardgrass (barnyardgrass; 8 g ai/ha): 5
Plant response rating, Barnyardgrass (barnyardgrass; 16 g ai/ha): 30
Barnyardgrass plant response rating (barnyardgrass; [12]): 80
Plant response rating, Soybean (soybean; [18]): 10
Plant response rating, Soybean (soybean; [19]): 5
Plant response rating, Soybean (soybean; [20]): 5
Soybean plant response rating (soybean; [21]): 25
Plant response rating, Lambsquarters (lambsquarters; [18]): 5
Plant response rating, Lambsquarters (lambsquarters; [19]): 55
Plant response rating, Lambsquarters (lambsquarters; [20]): 40
Lambsquarters plant response rating (lambsquarters; [21]): 75
Morningglory plant response rating (morningglory [5]; [17]): 90
Morningglory plant response rating (morningglory [5]; [8]): 90
Wheat plant response rating (wheat; [17]): 70
Wheat plant response rating (wheat; [8]): 40
